These results are taken from US9783532B2, “Molecules having certain pesticidal utilities, and intermediates, compositions, and processes related thereto” (Dow AgroSciences LLC, priority 2013, dated 2017).

Common to all, as to type: in vivo
The test system of data set [1] is Yellow Fever Mosquito "YFM" (Aedes aegypti). As to conditions: about 1 day-old larvae, 96-well plate, room temperature, 3 days, mortality. The procedure, abridged: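 About 1 day-old Aedes aegypti larvae in liver-powder water added to wells holding compound diluted from 4000 ppm DMSO stock with 90:10 water:acetone, 6 replicate plates. Plates kept covered at room temperature for 3 days. Wells scored for mortality and reported as rating categories.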

In data set [2] the test system is Cabbage Looper (Trichoplusia ni) ("CL"). Put plainly: Bioassay on cabbage looper (CL), 128-well diet tray assay. As to conditions: 168 h, 50 μg/cm^2 on artificial diet, second instar CL larvae, 25° C., five to seven days, average of eight wells, read-out: CL % Control (or Mortality) rating. The procedure, abridged:
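Second-instar larvae (one to five per well) placed on artificial diet surface-treated with 50 μg/cm^2 compound in 90:10 acetone-water, dried before infestation. Held 25 °C, 14:10 light-dark for five to seven days; percent mortality scored per well and averaged over eight wells.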

For data set [3], the system named is Beet Armyworm (Spodoptera exigua) ("BAW"). Nature of the data set: Bioassay on beet armyworm (BAW), 128-well diet tray assay. Conditions: 168 h, 50 μg/cm^2 on artificial diet, second instar BAW larvae, 25° C., five to seven days, average of eight wells, read-out: BAW % Control (or Mortality) rating. An outline of the steps:
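Second-instar larvae (one to five per well) were placed on artificial diet surface-treated with 50 μg/cm^2 compound applied in 90:10 acetone-water and dried, eight wells per compound. Held at 25° C., 14:10 light-dark for five to seven days; percent mortality was scored per well and averaged over the eight wells.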

The subject of data set [4] is Green Peach Aphid ("GPA") (Myzus persicae). Put plainly: Bioassay on green peach aphid (GPA), foliar spray on cabbage seedlings. Conditions: Myzus persicae, foliar, 72 h; 200 ppm spray on infested cabbage seedlings, three days, Abbott corrected % control; read-out: GPA % Control (or Mortality) rating. How it is done:
Certain molecules disclosed in this document were tested against GPA using procedures described in the following example. In the reporting of the results, the “GPA Rating Table” was used (See Table Section).
Cabbage seedlings grown in 3-inch pots, with 2-3 small (3-5 cm) true leaves, were used as test substrate. The seedlings were infested with 20-50 GPA (wingless adult and nymph stages) one day prior to chemical application. Four pots with individual seedlings were used for each treatment. Test compounds (2 mg) were dissolved in 2 mL of acetone/methanol (1:1) solvent, forming stock solutions of 1000 ppm test compound. The stock solutions were diluted 5× with 0.025% Tween 20 in water to obtain the solution at 200 ppm test compound. A hand-held aspirator-type sprayer was used for spraying a solution to both sides of […] leaves until runoff. Reference plants (solvent check) were sprayed with the diluent only containing 20% by volume of acetone/methanol (1:1) solvent. Treated plants were held in a holding room for three days at approximately 25° C. and ambient relative humidity (RH) prior to grading. Evaluation was conducted by counting the number of live aphids per plant under a microscope. Percent Control was measured by using Abbott's correction formula (W. S. Abbott, “A Method of Computing the Effectiveness of an Insecticide” J. Econ. Entomol. 18 (1925), pp. 265-267) as follows. Corrected % Control=100*(X−Y)/X • where • X=No. of live aphids on solvent check plants and • Y=No. of live aphids on treated plants

`CC(C)c1cccc(N2C(=O)CS/C2=N\C(=O)NCCc2ccc(-c3ncn(-c4ccc(OC(F)(F)F)cc4)n3)cc2)c1` [P51, (Z)-1-(3-(3-isopropylphenyl)-4-oxothiazolidin-2-ylidene)-3-(4-(1-(4-(trifluoromethoxy)phenyl)-1H-1,2,4-triazol-3-yl)phenethyl)urea]: the “YFM % Control (or Mortality) rating” value in data set [1] is listed as “A (80-100)”. Besides, the mortality at 50 µg/cm2 in data set [2] and in data set [3] was 50 to 100% throughout. Further, the mortality at 200 ppm in data set [4] fell in the range of 0 to 80%.
As to `COc1ccc(N2C(=O)CS/C2=N\C(=O)NCCc2ccc(-c3ncn(-c4ccc(OC(F)(F)F)cc4)n3)cc2)c(C)c1` [P44, (Z)-1-(3-(4-methoxy-2-methylphenyl)-4-oxothiazolidin-2-ylidene)-3-(4-(1-(4-(trifluoromethoxy)phenyl)-1H-1,2,4-triazol-3-yl)phenethyl)urea], the “YFM % Control (or Mortality) rating” value in data set [1] is “A (80-100)”. Besides, the mortality at 50 µg/cm2 in data set [2] and in data set [3] was 50 to 100% each time. For the same compound, in data set [4], the mortality at 200 ppm was 0%.
On to `CC(C)c1ccccc1N1C(=O)CS/C1=N\C(=O)NC1CC1c1ccc(-c2ncn(-c3ccc(OC(F)(F)F)cc3)n2)cc1` (stereo not shown) [F29, (Z)-1-(3-(2-isopropylphenyl)-4-oxothiazolidin-2-ylidene)-3-(2-(4-(1-(4-(trifluoromethoxy)phenyl)-1H-1,2,4-triazol-3-yl)phenyl)cyclopropyl)urea], for which the “YFM % Control (or Mortality) rating” value in data set [1] was “A (80-100)”. Besides, the mortality at 50 µg/cm2 in data set [2] and in data set [3] was 50 to 100% in each case. Further, the mortality at 200 ppm in data set [4] is 0%.
Regarding `Cc1ccc(C(C)C)c(N2C(=O)CS/C2=N\C(=O)NCCCCc2ccc(-c3ncn(-c4ccc(OC(F)(F)F)cc4)n3)cc2)c1` [P150, P363, (Z)-1-(3-(2-isopropyl-5-methylphenyl)-4-oxothiazolidin-2-ylidene)-3-(4-(4-(1-(4-(trifluoromethoxy)phenyl)-1H-1,2,4-triazol-3-yl)phenyl)butyl)urea], in data set [1], the “YFM % Control (or Mortality) rating” value is “A (80-100)”. For the same compound, the mortality at 50 µg/cm2 in data set [2] and in data set [3] was 50 to 100% throughout. Besides, the mortality at 200 ppm in data set [4] lay within 0 to 80%.

The mortality is the percentage killed.
